Molecules are shown by their SMILES.

From patent US20240385187A1, “BI-[…] REPORTER PARTICLE AND METHODS FOR MAKING AND USING THE SAME” (The Trustees of Indiana University, priority 2021, published 2024) come the findings set out here.

For the test, the system named is phagosomes of RAW264.7 macrophage cells. The test can be described thus: Effect of V-ATPase inhibition on phagosome acidification and proteolysis, monitored in single phagosomes with Janus pH-proteolysis reporter particles. Type of test: cell-based. The following applies: for duration of proteolysis: onset of proteolysis to start of Rhodamine 110 intensity decrease, without ConA 24±10. How it is done:
Dual color imaging started 5 minutes after Janus particle probes were added to cells and lasted for approximately 45 minutes. After particle internalization, the fluorescence intensity of the pH reporter increased first, followed by a similar intensity increase of the proteolysis reporter, indicating the progress of maturation (FIG. 6A). It was noted that some […] slowly diffused into the cell cytoplasm by the end of imaging, causing a slightly elevated fluorescence in the cell. This is expected because small dye molecules can passively diffuse across the phagosome membrane.
ConcanamycinA (ConA), a V-ATPase inhibitor, was added to disrupt acidification of phagosomes and its effect on proteolytic activities was monitored. […] The fluorescence decrease was caused by the continuous diffusion of Rhodamine 110, already in the phagosome lumen prior to the ConA addition, into the cell cytoplasm. After ConA addition, Rhodamine 110 lost by diffusion was not replaced by the generation of more.
To quantify the effect of ConA on proteolysis, duration of proteolysis was measured. In cells without ConA treatment, this was measured as the time from the onset of proteolysis (tproteolysis) to the start of the intensity plateau. In cells treated with ConA, this was measured as the time from the onset of proteolysis (tproteolysis) to the time when the Rhodamine 110 intensity started to decrease (FIG. 7C). Phagosome proteolysis in cells without ConA treatment lasted for 24±10 minutes on average (FIG. 7C). However, the duration of proteolysis was shorted to 16±5 minutes in the presence of 100 nM ConA and 10±4 minutes with 500 nM ConA.
In all phagosomes examined (N=21), proteolysis stopped within a short time after termination of acidification. […] This is consistent with the observation noted above that proteolysis started when the phagosome acidified to a threshold pH of 5.8±0.7. […] With the Janus reporter particle, it was identified that an acidic lumen is a prerequisite for the start of proteolytic activities in phagosomes, and their temporal relationship inside single phagosomes was quantitatively determined; data impossible to obtain by prior methods. Thus the bifunctional Janus pH-proteolysis reporter particle was able to detect both a disruption in phagosome acidification and a disruption in proteolytic activity inside a single phagosome caused by the presence of the V-ATPase inhibitor ConA.
Carboxylate polystyrene particles (500 nm) were purchased from Polysciences (Warrington, PA, USA). CF™ 640R NHS ester (succinimidyl ester), fluorescent peptide Rhodamine 110, bis-(N-CBZ-L-phenylalanyl-L-arginine amide) dihydrochloride (Z-FR-R110) were purchased from Biotium (Fremont, CA, USA). Amine-functionalized polystyrene particle (3 μm), carboxylated fluorophores (500 nm, ex/em 580/605), Alexa Fluor 568 NHS ester (succinimidyl ester), Alexa Fluor 647 NHS ester (succinimidyl ester), pHrodo™ iFL Red STP Ester, EZ-Link™ NHS-Biotin, sulfo-NHS (N-succinimidyl ester), streptavidin, and lipopolysaccharides from Escherichia coli (LPS) were purchased from ThermoFisher Scientific (Waltham, MA, USA). Bovine serum albumin (BSA), trypsin, nigericin sodium salt, and immunoglobulin G (IgG) from rabbit plasma were purchased from MilliporeSigma (St. Louis, MO, USA). 1-(3-Dimethylaminopropyl)-3-ethylcarbodiimide hydrochloride (EDC) was purchased from Alfa Aesar (Haverhill, MA, USA). Biotin pentylamine was purchased from Soltec BioScience (Beveraly MA). Concanamycin A was purchased from Santa Cruz Biotechnology (Dallas, TX, USA). Raw 264.7 macrophage cells were purchased from ATCC (Manassas, VA, USA). Ringer's solution (pH=7.2, 10 mM HEPES, 10 mM glucose, 155 mM NaCl, 2 mM NaH2PO4, 5 mM KCl, 2 mM CaCl2, 1 mM MgCl2) was used for live-cell imaging. Potassium-rich solution (135 mM KCl, 2 mM […], 1.2 mM CaCl2, 0.8 mM MgSO4) was used for intracellular pH calibration. […]

As to `C/C=C/[C@H]1O[C@@](O)([C@@H](C)[C@H](O)[C@H](C)[C@H]2OC(=O)/C(OC)=C/C(C)=C/[C@@H](C)[C@@H](O)[C@@H](CC)[C@@H](O)[C@H](C)C/C(C)=C/C=C/[C@@H]2OC)C[C@@H](O[C@H]2C[C@@H](O)[C@H](OC(N)=O)[C@@H](C)O2)[C@@H]1C` [ConA, Concanamycin A], the “phagosome acidification and proteolytic activity” value (100 nM ConA added to cells before the onset of acidification) is recorded as “failed to acidify or exhibit proteolytic activities”. The duration of proteolysis runs as follows: (100 nM ConA, N=11) 16 ± 5 min; (500 nM ConA, N=10) 10 ± 4 min. Under “ConA added after acidification had started, within minutes after acidification stopped”, the “phagosome proteolysis (Rhodamine 110 fluorescence)” value is listed as “phagosome proteolysis also stopped”. For the same compound, the phagosome acidification entry (ConA added to cells after acidification had started, lumen pH started to increase) is recorded as “stopped acidifying”. Besides, the “average pH of single phagosomes at the termination point of proteolysis” value (ConA-treated cells, N=21 phagosomes) came to 5.1±0.4.
